Measurements from patent US4371544A, “Pharmaceutical composition containing 1,1,3,5-substituted biuret compound” (Taiho Pharmaceutical Company Limited, priority 1979, dated 1983).
Like-named read-outs stand apart in the source and are kept apart here.

Experiments:
ddy strain of male mice [1] = experiment: Analgesic activity, acetic acid-induced stretching method; type: in vivo, mouse (ddy); conditions: for ED50: oral, Δ mark, range in parentheses
Procedure: (§1) Next, several tests for determining the pharmacological properties, in that acute toxicity, anti-pyretic activity, analgesic activity and anti-inflammatory activity of the present 1,1,3,5-substituted biuret compounds of the formula (1) were conducted and the test results are shown in Table (2). In the tests, each compounds to be tested was used as a suspension in 0.25% carboxymethylcellulose solution. Methods for testing are explained as follows:
According to the method reported by Koster et al., [Fed. Proc., Vol. 18, pp. 412 (1959)], the ddy strain of male mice (body weight, 20-25 g) were used as test animals. The mice were fasted overnight, 100 mg/kg body weight of the test compound was administered orally, then 1 hour after the administration, 0.2 ml of 0.7% acetic acid solution was injected intraperitoneally. The acetic acid-induced stretching symptom of mouse was observed. Analgesic activity of the test compound was calculated as the inhibitory ratio (%). In Table 2, the values in parentheses show the data obtained from the test by using the dosage other than 100 mg/kg body weight. Further, the values indicated with Δ marks show 50% effective dose, ED50 (mg/kg body weight).

[2] = test system: Wistar strain of male rats; experiment: Anti-inflammatory activity (acute carrageenin-induced inflammatory test, hindpaw); type: in vivo, rat (Wistar)
Procedure: as §1
According to the method of acute carrageenin-induced inflammatory test [Folia Pharmacologia Japonica, Vol. 56, pp. 575 (1960)], the Wistar strain of male rats (body weight, 150-180 g) were used as test animals. The rats were fasted overnight, 100 mg/kg body weight of the test compound was administered orally, then 1 hour after the administration, 0.1 ml of 1% carrageenin solution, as the inflammation inducing agent, was injected subcutaneously to the hindpaw of the rat and the volume of the hindpaw was measured at time sequences, Anti-inflammatory activity of the test compound was calculated as inflammation inhibitory ratio (%) at 3 hours after the injection of inflammation inducing agent.

ddy strain of male mice [3] = experiment: Acute toxicity (oral, mice, 7 days observation); type: in vivo
Procedure: as §1
The ddy strain of male mice (body weight, 20-25 g) were used as test animals. The mice were fasted overnight and the compound to be tested was administered orally. […] The lethal dose (mg/kg, body weight) of the test compound was determined in connection with the death number of mice/the number of mice tested. In Table 2, the values indicated with Δ marks are 50% lethal dose, LD50 (mg/kg, body weight).

ddy strain of male mice [4] = experiment: Analgesic activity, Haffner method (morphine threshold dose, clamp); type: in vivo, mouse (ddy); conditions: for inhibition in vivo at 200 mg/kg: 200 mg/kg oral; for ED50: oral, Δ mark, range in parentheses
Procedure: as §1
According to the modified method reported by Fujimura et. al., [Bulletin of the Institute for Chemical Research, Kyoto University, No. 25, pp. 36 (1951)], the ddy strain of male mice (body weight, 20-25 g) were used as test animals. The mice were fasted overnight, 100 mg/kg body weight of the test compound was administered orally, then 45 minutes after the administration, the threshold amount (1.5-2.5 mg/kg body weight) of morphine hydrochloride was injected subcutaneously. Then 1-hour pain reaction of the mouse caused by a clamp was observed. Analgesic activity of the test compound was calculated as the inhibitory ratio (%). In Table 2, the values in parentheses show the data obtained from the test by using the dosage other than 100 mg/kg body weight. Further, the values indicated with Δ marks show 50% effective dose, ED50 (mg/kg body weight).

[5] = test system: Wistar strain of male rats; experiment: Anti-pyretic activity (dry-yeast-induced fever); type: in vivo, rat (Wistar); conditions: oral (dose not given), up to 4 hours after administration
Procedure: as §1
According to the method reported by Tanabe [Folia Pharmacologia Japonica, Vol. 73, pp. 803 (1977)], the Wistar strain of male rats (150-180 g, body weight) were used as test animals. The rats were fasted overnight, and 1 ml/100 g (body weight) of 10% dry-yeast suspension were subcutaneously injected on the back of the rats. Five hours after the injection, the test compound was administered orally, then the body temperature of the rat was measured at time sequences. Anti-pyretic activity of the test compound was determined as the FI (febril index) by integrating pyrogenetic curve up to 4 hours after the administration of the test compound with time, and indicated as inhibitory ratio (%) shown by the following formula, [formula]

[6] = Mus musculus, po, read-out: Analgesic activity, acetic acid-induced stretching method, inhibitory ratio
[7] = Rattus norvegicus, 100 mg/kg oral, 3 hours after carrageenin, read-out: Anti-inflammatory activity, inflammation inhibitory ratio
[8] = Mus musculus, read-out: Analgesic activity, Haffner method, inhibitory ratio
[9] = 100 mg/kg oral, 3 hours after carrageenin

Compound	Acute toxicity: death number of mice/number of mice tested (ddy strain of male mice [3]; 2000 mg/kg oral)	ED50 (ddy strain of male mice [1]; Mus musculus) [mg/kg]	Anti-inflammatory activity, inflammation inhibitory ratio [2, 9] [%]	Anti-pyretic activity, inhibitory ratio (febril index) [5] [%]	ED50 (ddy strain of male mice [4]; Mus musculus) [mg/kg]	also measured
CN(C)C(=O)NC(=O)Nc1ccccc1 [Compound No. 1]						inhibition in vivo at 100 mg/kg (ddy strain of male mice [1]; [6]): 50%; inhibition in vivo at 100 mg/kg [2, 7]: 42%; Acute toxicity: death number of mice/number of mice tested (ddy strain of male mice [3]; mouse, in vivo): 0/4; inhibition in vivo at 200 mg/kg (ddy strain of male mice [4]; [8]): 50%
COc1ccc(NC(=O)NC(=O)N(C)C)cc1 [Compound No. 4, 1,1-Dimethyl-5-(4-methoxyphenyl)biuret]	0/4					inhibition in vivo at 100 mg/kg (ddy strain of male mice [1]; [6]): 75%; inhibition in vivo at 100 mg/kg ([2]; Rattus norvegicus, po, 3 h, read-out: Anti-inflammatory activity, inflammation inhibitory ratio): 43%; inhibition in vivo at 100 mg/kg (ddy strain of male mice [4]; Mus musculus, 100 mg/kg oral, 45 minutes before morphine hydrochloride, read-out: Analgesic activity, Haffner method, inhibitory ratio): 50%
Cc1ccc(NC(=O)NC(=O)N(C)C)cc1 [Compound No. 5]	0/4					inhibition in vivo at 100 mg/kg (ddy strain of male mice [1]; [6]): 25%; inhibition in vivo at 100 mg/kg ([2]; Rattus norvegicus, po, 2 h, read-out: Anti-inflammatory activity, inflammation inhibitory ratio): 23%
CN(C)C(=O)N(C)C(=O)Nc1ccccc1 [Compound No. 6, 1,1,3-trimethyl-5-phenylbiuret]		75	59	80	68	
CN(C)C(=O)N(C)C(=O)Nc1ccc(Cl)cc1 [Compound No. 12, 1,1,3-Trimethyl-5-(4-chlorophenyl)biuret]		12	47	84	20	
CN(C)C(=O)N(C)C(=O)Nc1ccc(Br)cc1 [Compound No. 16, 1,1,3-Trimethyl-5-(4-bromophenyl)biuret]		60		103	74	Anti-inflammatory activity, inflammation inhibitory ratio ([2]; 100 mg/kg oral, (2 hours)): 48%
CN(C)C(=O)N(C)C(=O)Nc1ccccc1C(F)(F)F [Compound No. 17, 1,1,3-Trimethyl-5-(2-trifluoromethylphenyl)biuret]			66	65		Analgesic activity, acetic acid-induced stretching method, inhibitory ratio (ddy strain of male mice [1]; 100 mg/kg oral, 1 hour before acetic acid): 12.5%; Acute toxicity: death number of mice/number of mice tested (ddy strain of male mice [3]; 1000 mg/kg oral): 1/4; Analgesic activity, Haffner method, inhibitory ratio (ddy strain of male mice [4]; 100 mg/kg oral, 45 minutes before morphine hydrochloride): 37.5%
COc1ccc(NC(=O)N(C)C(=O)N(C)C)cc1 [Compound No. 23, 1,1,3-Trimethyl-5-(4-methoxyphenyl)biuret]		39	33	75	80	
Cc1ccc(NC(=O)N(C)C(=O)N(C)C)cc1 [Compound No. 28, 1,1,3-Trimethyl-5-(4-methylphenyl)biuret]	0/4	33		52	80	Anti-inflammatory activity, inflammation inhibitory ratio ([2]; 100 mg/kg oral, (2 hours)): 23%
CN(C)C(=O)N(C(=O)Nc1ccccc1)c1ccccc1 [Compound No. 42, 1,1-dimethyl-3,5-diphenylbiuret]	3/4			14		inhibition in vivo at 200 mg/kg (ddy strain of male mice [1]; [6]): 62.5%; inhibition in vivo at 100 mg/kg [2, 7]: 34%; Acute toxicity: death number of mice/number of mice tested (ddy strain of male mice [3]; 1000 mg/kg oral): 0/4; inhibition in vivo at 200 mg/kg (ddy strain of male mice [4]; [8]): 50%
CCN(C)C(=O)NC(=O)Nc1ccccc1 [Compound No. 43, 1-ethyl-1-methyl-5-phenylbiuret]	0/4					inhibition in vivo at 100 mg/kg (ddy strain of male mice [1]; Mus musculus, 100 mg/kg oral, 1 hour before acetic acid, read-out: Analgesic activity, acetic acid-induced stretching method, inhibitory ratio): 50%; inhibition in vivo at 200 mg/kg ([2]; Rattus norvegicus, 200 mg/kg oral, 3 hours after carrageenin, read-out: Anti-inflammatory activity, inflammation inhibitory ratio): 72%; inhibition in vivo at 200 mg/kg (ddy strain of male mice [4]; [8]): 12.5%
